Results taken from patent US20220169632A1, “METHODS AND MATERIALS FOR INCREASING OR MAINTAINING NICOTINAMIDE MONONUCLEOTIDE ADENYLYL TRANSFERASE-2 (NMNAT2) POLYPEPTIDE LEVELS” (University of Pittsburgh - Of the Commonwealth System of …, priority 2019, published 2022).

System: NMNAT2
Experiment: NMNAT2-Hibit nano-luciferase activity in stably transfected U87MG cells, various concentrations, 24 hours
Assay type: cell-based
Conditions: U87MG cells stably transfected with NMNAT2-Hibit luc plasmid
Procedure: Selected compounds were tested in vitro. U87MG cells were stably transfected with NMNAT2-Hibit luc plasmid. Cells were treated with a test compound at various concentrations for 24 hours. Cells were then collected and assayed for nano-luciferase activity.

| Structure (SMILES) | E: compound efficacy for NMNAT2 activation (concentration giving >25% increase in NMNAT2 luciferase activity) |
| --- | --- |
| Cc1ccccc1Cn1c(C)c(C)c2cc(C(=O)NCC3CCCO3)ccc21 (centres unmarked) [BC20201] | + (“+” >25% increase in NMNAT2 luciferase activity at >25 μM.) |
| Cc1ccccc1Cn1c(C)c(C)c2cc(C(=O)NCc3cccc(F)c3)ccc21 [BC20202] | ++ (“++” >25% increase in NMNAT2 luciferase activity at >1 μM ≤25 μM.) |
| Cc1ccccc1CNC(=O)c1ccc2c(c1)c(C)c(C)n2Cc1ccccc1C [BC20203] | ++ (“++” >25% increase in NMNAT2 luciferase activity at >1 μM ≤25 μM.) |
| Cc1cccc(CNC(=O)c2ccc3c(c2)c(C)c(C)n3Cc2ccccc2C)c1 [BC20204] | ++ (“++” >25% increase in NMNAT2 luciferase activity at >1 μM ≤25 μM.) |
| COc1cccc(CNC(=O)c2ccc3c(c2)c(C)c(C)n3Cc2ccccc2C)c1 [BC20205] | + (“+” >25% increase in NMNAT2 luciferase activity at >25 μM.) |
| Cc1ccccc1Cn1c(C)c(C)c2cc(C(=O)N3CCN(C(=O)c4ccco4)CC3)ccc21 [BC20206] | + (“+” >25% increase in NMNAT2 luciferase activity at >25 μM.) |
| Cc1ccccc1Cn1c(C)c(C)c2cc(C(=O)NC(C)Cc3ccco3)ccc21 (centres unmarked) [BC20207] | + (“+” >25% increase in NMNAT2 luciferase activity at >25 μM.) |
| Cc1ccccc1Cn1c(C)c(C)c2cc(C(=O)NCc3cccnc3)ccc21 [BC20208] | ++ (“++” >25% increase in NMNAT2 luciferase activity at >1 μM ≤25 μM.) |
| Cc1ccccc1Cn1c(C)c(C)c2cc(C(=O)NCc3ccncc3)ccc21 [BC20209] | ++ (“++” >25% increase in NMNAT2 luciferase activity at >1 μM ≤25 μM.) |
| O=C(CCCc1cn(Cc2ccccc2F)c2ccccc12)NCc1ccccc1F [BC20210] | + (“+” >25% increase in NMNAT2 luciferase activity at >25 μM.) |
| CCCCN(CC)Cc1ccc(CNC(=O)CCCc2cn(Cc3ccccc3F)c3ccccc23)o1 [BC20211] | +++ (“+++” >25% increase in NMNAT2 luciferase activity at ≤1 μM.) |
| CCCCN(CC)Cc1ccc(CNC(=O)CCCc2cn(Cc3cccc(F)c3)c3ccccc23)o1 [BC20212] | +++ (“+++” >25% increase in NMNAT2 luciferase activity at ≤1 μM.) |
| COc1ccccc1CNC(=O)CCCc1cn(Cc2cccc(C)c2)c2ccccc12 [BC20213] | ++ (“++” >25% increase in NMNAT2 luciferase activity at >1 μM ≤25 μM.) |
| CC(Cc1ccco1)NC(=O)Cn1cc(C(=O)c2ccc(Cl)cc2)c2ccccc21 (centres unmarked) [BC20214] | + (“+” >25% increase in NMNAT2 luciferase activity at >25 μM.) |
| O=C(Cn1cc(C(=O)c2ccc(Cl)cc2)c2ccccc21)NCCc1ccccc1 [BC20215] | ++ (“++” >25% increase in NMNAT2 luciferase activity at >1 μM ≤25 μM.) |
| O=C(Cn1cc(C(=O)c2ccc(Cl)cc2)c2ccccc21)NCc1ccncc1 [BC20216] | ++ (“++” >25% increase in NMNAT2 luciferase activity at >1 μM ≤25 μM.) |
| Cc1ccc(C)c(Cn2c3c(c4ccccc42)CC(C(=O)NCc2ccccc2F)CC3)c1 (centres unmarked) [BC20217] | + (“+” >25% increase in NMNAT2 luciferase activity at >25 μM.) |
| Cc1ccc(C)c(Cn2c3c(c4ccccc42)CC(C(=O)NCCc2ccccc2)CC3)c1 (centres unmarked) [BC20218] | + (“+” >25% increase in NMNAT2 luciferase activity at >25 μM.) |
| CCCCN(CC)Cc1ccc(CNC(=O)C2CCc3c(c4ccccc4n3Cc3cc(C)ccc3C)C2)o1 (centres unmarked) [BC20219] | ++ (“++” >25% increase in NMNAT2 luciferase activity at >1 μM ≤25 μM.) |
| O=C(NCc1ccco1)C1CCc2c(c3ccccc3n2Cc2cccc(F)c2)C1 (centres unmarked) [BC20220] | ++ (“++” >25% increase in NMNAT2 luciferase activity at >1 μM ≤25 μM.) |
| Cc1ccc(CNC(=O)C2CCc3c(c4ccccc4n3Cc3cccc(F)c3)C2)o1 (centres unmarked) [BC20221] | + (“+” >25% increase in NMNAT2 luciferase activity at >25 μM.) |
| O=C(NCc1cccc(F)c1)C1CCc2c(c3ccccc3n2Cc2cccc(F)c2)C1 (centres unmarked) [BC20222] | + (“+” >25% increase in NMNAT2 luciferase activity at >25 μM.) |
| Cc1ccccc1CNC(=O)C1CCc2c(c3ccccc3n2Cc2cccc(F)c2)C1 (centres unmarked) [BC20223] | + (“+” >25% increase in NMNAT2 luciferase activity at >25 μM.) |
| Cc1cccc(CNC(=O)C2CCc3c(c4ccccc4n3Cc3cccc(F)c3)C2)c1 (centres unmarked) [BC20224] | + (“+” >25% increase in NMNAT2 luciferase activity at >25 μM.) |

| Structure (SMILES) | E: compound efficacy for NMNAT2 activation (concentration giving >25% increase in NMNAT2 luciferase activity) |
| --- | --- |
| COc1ccccc1CNC(=O)C1CCc2c(c3ccccc3n2Cc2cccc(F)c2)C1 (centres unmarked) [BC20225] | + (“+” >25% increase in NMNAT2 luciferase activity at >25 μM.) |
| COc1cccc(CNC(=O)C2CCc3c(c4ccccc4n3Cc3cccc(F)c3)C2)c1 (centres unmarked) [BC20226] | + (“+” >25% increase in NMNAT2 luciferase activity at >25 μM.) |
| O=C(NCCc1ccccc1)C1CCc2c(c3ccccc3n2Cc2cccc(F)c2)C1 (centres unmarked) [BC20227] | ++ (“++” >25% increase in NMNAT2 luciferase activity at >1 μM ≤25 μM.) |
| O=C(NCc1ccncc1)C1CCc2c(c3ccccc3n2Cc2cccc(F)c2)C1 (centres unmarked) [BC20228] | ++ (“++” >25% increase in NMNAT2 luciferase activity at >1 μM ≤25 μM.) |
| Cc1cccc(NC(=O)C2CCc3c(c4ccccc4n3Cc3cccc(F)c3)C2)c1C (centres unmarked) [BC20229] | + (“+” >25% increase in NMNAT2 luciferase activity at >25 μM.) |
| Cc1ccc(Cn2cc(C3CCN(Cc4ccccc4F)C(=O)C3)c3ccccc32)cc1 (centres unmarked) [BC20230] | ++ (“++” >25% increase in NMNAT2 luciferase activity at >1 μM ≤25 μM.) |
| Cc1ccc(Cn2cc(C3CCN(Cc4cccc(F)c4)C(=O)C3)c3ccccc32)cc1 (centres unmarked) [BC20231] | ++ (“++” >25% increase in NMNAT2 luciferase activity at >1 μM ≤25 μM.) |
| Cc1ccc(Cn2cc(C3CCN(Cc4ccccc4C)C(=O)C3)c3ccccc32)cc1 (centres unmarked) [BC20232] | + (“+” >25% increase in NMNAT2 luciferase activity at >25 μM.) |
| Cc1ccc(Cn2cc(C3CCN(Cc4cccc(C)c4)C(=O)C3)c3ccccc32)cc1 (centres unmarked) [BC20233] | ++ (“++” >25% increase in NMNAT2 luciferase activity at >1 μM ≤25 μM.) |
| CCOC(=O)Cn1cc(C2=CC(=O)NCC2)c2ccccc21 [BC20234] | ++ (“++” >25% increase in NMNAT2 luciferase activity at >1 μM ≤25 μM.) |
| CCOC(=O)Cn1cc(C2CCNC(=O)C2)c2ccccc21 (centres unmarked) [BC20235] | ++ (“++” >25% increase in NMNAT2 luciferase activity at >1 μM ≤25 μM.) |
| Cc1ccc(CNC(=O)C2CCc3c(c4ccccc4n3CC(=O)NCc3ccco3)C2)o1 (centres unmarked) [BC20236] | ++ (“++” >25% increase in NMNAT2 luciferase activity at >1 μM ≤25 μM.) |
| O=C(Cn1c2c(c3ccccc31)CC(C(=O)NCC1CCCO1)CC2)NCc1ccco1 (centres unmarked) [BC20237] | ++ (“++” >25% increase in NMNAT2 luciferase activity at >1 μM ≤25 μM.) |
| Cc1ccccc1CNC(=O)C1CCc2c(c3ccccc3n2CC(=O)NCc2ccco2)C1 (centres unmarked) [BC20238] | ++ (“++” >25% increase in NMNAT2 luciferase activity at >1 μM ≤25 μM.) |
| Cc1cccc(CNC(=O)C2CCc3c(c4ccccc4n3CC(=O)NCc3ccco3)C2)c1 (centres unmarked) [BC20239] | ++ (“++” >25% increase in NMNAT2 luciferase activity at >1 μM ≤25 μM.) |
| COc1ccccc1CNC(=O)C1CCc2c(c3ccccc3n2CC(=O)NCc2ccco2)C1 (centres unmarked) [BC20240] | ++ (“++” >25% increase in NMNAT2 luciferase activity at >1 μM ≤25 μM.) |
| COc1cccc(CNC(=O)C2CCc3c(c4ccccc4n3CC(=O)NCc3ccco3)C2)c1 (centres unmarked) [BC20241] | ++ (“++” >25% increase in NMNAT2 luciferase activity at >1 μM ≤25 μM.) |
| O=C(Cn1c2c(c3ccccc31)CC(C(=O)NCc1cccnc1)CC2)NCc1ccco1 (centres unmarked) [BC20242] | + (“+” >25% increase in NMNAT2 luciferase activity at >25 μM.) |
| Cc1ccc(C)c(Cn2c3c(c4ccccc42)CN(C(=O)NCc2ccco2)CC3)c1 [BC20243] | +++ (“+++” >25% increase in NMNAT2 luciferase activity at ≤1 μM.) |
| Cc1c(C)n(Cc2ccccc2F)c2ccc(C(=O)NC(C)Cc3ccco3)cc12 (centres unmarked) [BC20244] | + (“+” >25% increase in NMNAT2 luciferase activity at >25 μM.) |
| Cc1c(C)n(Cc2ccccc2F)c2ccc(C(=O)NCCc3ccccc3)cc12 [BC20245] | ++ (“++” >25% increase in NMNAT2 luciferase activity at >1 μM ≤25 μM.) |
| Cc1cccc(NC(=O)c2ccc3c(c2)c(C)c(C)n3Cc2ccccc2F)c1C [BC20246] | ++ (“++” >25% increase in NMNAT2 luciferase activity at >1 μM ≤25 μM.) |
| Cc1c(C)n(Cc2ccccc2F)c2ccc(C(=O)N3CCc4occc4C3)cc12 [BC20247] | + (“+” >25% increase in NMNAT2 luciferase activity at >25 μM.) |
